This assay deals with sterol synthesis. The experiment in a line: CSI screen: incorporation of 14C-acetate into nonsaponifiable lipid by rat liver homogenate (inhibition of cholesterol biosynthesis). The class given is biochemical. The settings on record: 50% inhibition of sterol synthesis over a one-hour period, livers of rats fed 5% cholestyramine chow for four days. Here is the method:
The ability of compounds of the present invention to inhibit the biosynthesis of cholesterol was measured by a method (designated CSI screen) which utilizes the procedure described by R. E. Dugan et al, Archiv. Biochem. Biophys., (1972), 152, 21-27. In this method, the level of HMG-CoA enzyme activity in standard laboratory rats is increased by feeding the rats a chow diet containing 5% cholestyramine for four days, after which the rats are sacrificed.
The rat livers are homogenized, and the incorporation of 14C-acetate into nonsaponifiable lipid by the rat liver homogenate is measured. The micromolar concentration of compound required for 50% inhibition of sterol synthesis over a one-hour period is measured, and expressed as an IC50 value.
The activities of several representative examples of compounds in accordance with the present invention appear in Table 1.
In turn, `Cc1cc(C)cc(-c2nc(-c3ccccc3)nc(C)c2/C=C/[C@@H]2C[C@@H](O)CC(=O)O2)c1` (relative stereo) [[4α, 6β(E)]-6-[2-[4-(3,5-Dimethylphenyl)-6-methyl-2-phenyl-5-pyrimidinyl]ethenyl]-tetrahydro-4-hydroxy-2H-pyran-2-one] registered an IC50 of 0.22 µM.

Compound `Cc1nc(C)c(/C=C/[C@@H]2C[C@@H](O)CC(=O)O2)c(-c2ccc(F)cc2)n1` (relative stereo) [[4α, 6β(E)]-6-[2-[4-(4-Fluorophenyl)-2,6-dimethyl-5-pyrimidinyl]ethenyl]tetrahydro-4-hydroxy-2H-pyran-2-one] returned a concentration for half-maximal inhibition (IC50) of 0.13 µM.

Compound `Cc1nc(-c2ccccc2)nc(-c2ccc(F)cc2)c1/C=C/[C@@H]1C[C@@H](O)CC(=O)O1` (relative stereo) [[4α, 6β(E)]-6-[2-[4-(4-Fluorophenyl)-6-methyl-2-phenyl-5-pyrimidinyl]ethenyl]tetrahydro-4-hydroxy-2H-pyran-2-one] came in with an IC50 of 0.15 µM.
